Results reported in PMC6149812, “Access to New Cytotoxic Quinone-Amino Acid Conjugates Linked through A Vinylic Spacer from 2-Acylnaphthoquinones and Methyl 3-Aminocrotonate” (Molecules : A Journal of Synthetic Chemistry and Natural …, 2017).
Like-named read-outs stand apart in the source and are kept apart here.

Experiments:
[1] = tested on: AGS human gastric adenocarcinoma cells; assay: MTT reduction cytotoxicity assay, 72 h drug exposure, AGS; type: cell-based; details: human gastric adenocarcinoma cell line, 72 h exposure, average of six determinations, read-out: IC50 ± SEM, AGS
[2] = tested on: SK-MES-1 human lung cancer cells; assay: MTT reduction cytotoxicity assay, 72 h drug exposure, SK-MES-1; type: cell-based; details: 72 h exposure, average of six determinations, read-out: IC50 ± SEM, SK-MES-1
[3] = tested on: J82 human bladder carcinoma cells; assay: MTT reduction cytotoxicity assay, 72 h drug exposure, J82; type: cell-based; details: human bladder carcinoma cell line, 72 h exposure, average of six determinations, read-out: IC50 ± SEM, J82
[4] = MTT reduction cytotoxicity assay, 72 h drug exposure, cell line panel of Table 3; type: cell-based; details: human, summary range over the cell lines of Table 3, 72 h exposure, read-out: cytotoxic activities, range of IC50 over Table 3
Procedure: Finally, HL-60 cells were grown in RPMI medium.

[5] = tested on: MRC-5 normal human lung fibroblasts; assay: cells; details: MRC5, 72 h, read-out: IC50 ± SEM, MRC-5
Procedure: (§1) Cytotoxic activities of the compounds are expressed in terms of IC50. Etoposide, a clinically used anticancer agent, was taken as a positive control.
(§2) Media were supplemented with 10% heat-inactivated fetal bovine serum (FBS), 100 IU/mL penicillin and 100 μg/mL streptomycin and cell cultures were kept in a humidified incubator with 5% CO2 in air at 37 °C. For the cytotoxicity experiments, cells were seeded into 96-well plates at a density of 50,000 cells/mL. After reaching confluence, cells were incubated for three days with compounds at varied concentrations ranging from 0 up to 100 μM while untreated cells (medium containing 1% DMSO) were used as controls. Cytotoxicity was assessed using the MTT (3-(4,5-dimethylthiazol-2-yl)-2,5-diphenyltetrazolium bromide) reduction assay. […] Values were the means of six replicates for each concentration and transformed to percentage of controls.

[6] = tested on: MRC-5 normal human lung fibroblasts; details: for IC50: read-out: IC50 ± SEM, MRC-5, normal human lung fibroblasts, 72 h exposure, MTT, average of six determinations
Procedure: as §1, §2

[7] = SK-MES-1, human lung cancer cell line

Molecule | melting point | IC50 [1] | IC50 [2, 7] | IC50 [3] | IC50 at 72 h [4] | IC50 [5] | IC50 ([2]; human lung cancer cell line) | IC50 [6] | cytotoxicity relative to etoposide on normal human lung fibroblasts cells [6]
COC(=O)C1=C(C)N(CCO)C(C)(O)C2=C1C(=O)c1ccccc1C2=O (stereo not shown) [Compound 5a, Methyl 1-hydroxy-2-(2-hydroxyethyl)-1,3-dimethyl-5,10-dioxo-1,2,5,10-tetrahydrobenzo[g]isoquinoline-4-carboxylate] | 215 to 217 °C | – | – | – | – | – | – | – | –
COC(=O)C1=C(C)N(CCO)C(O)(c2ccccc2)C2=C1C(=O)c1ccccc1C2=O (stereo not shown) [Compound 5b, Methyl 1-hydroxy-2-(2-hydroxyethyl)-3-methyl-5,10-dioxo-1-phenyl-1,2,5,10-tetrahydrobenzo[g] isoquinoline-4-carboxylate] | 236.5 to 238.5 °C | – | – | – | – | – | – | – | –
COC(=O)/C(C1=C(C(=O)c2ccccc2)C(=O)c2ccccc2C1=O)=C(/C)N[C@@H](C)C(=O)OC [Compound 6, Methyl (S,Z)-2-(3-benzoyl-1,4-dioxo-1,4-dihydronaphthalen-2-yl)-3-[(1-methoxy-1-oxopropan-2-yl)amino]-but-2-enoate] | 217 to 218 °C | 52.7 ± 3.7 µM | 47.8 ± 3.3 µM | 37.1 ± 2.2 µM | 4.5 to 53.4 µM | 58 ± 4.1 µM | – | – | –
COC(=O)/C(C1=C(C(=O)c2ccccc2)C(=O)c2ccccc2C1=O)=C(/C)N[C@H](C)C(=O)OC [Compound 7, Methyl (R,Z)-2-(3-benzoyl-1,4-dioxo-1,4-dihydronaphthalen-2-yl)-3-[(1-methoxy-1-oxopropan-2-yl)amino]-but-2-enoate] | – | 20.5 ± 1.1 µM | 53.4 ± 4.3 µM | 35.6 ± 1.4 µM | 4.5 to 53.4 µM | 17.4 ± 0.7 µM | – | – | –
COC(=O)/C(C1=C(C(=O)c2ccccc2)C(=O)c2ccccc2C1=O)=C(/C)N[C@@H](CC(C)C)C(=O)OC [Compound 8, Methyl (Z)-[3-(3-benzoyl-1,4-dioxo-1,4-dihydronaphthalen-2-yl)-4-methoxy-4-oxobut-2-en-2-yl]-L-leucinate] | 222.5 to 224.5 °C | 26.9 ± 1.5 µM | 34.5 ± 1.7 µM | 12.9 ± 0.9 µM | 4.5 to 53.4 µM | 26.6 ± 1.3 µM | – | – | –
CCCCCC(=O)C1=C(/C(C(=O)OC)=C(\C)N[C@@H](CC(C)C)C(=O)OC)C(=O)c2ccccc2C1=O [Compound 13, Methyl (Z)-[3-(3-hexanoyl-1,4-dioxo-1,4-dihydronaphthalen-2-yl)-4-methoxy-4-oxobut-2-en-2-yl]-L-leucinate] | – | 17 ± 1.1 µM | 21.6 ± 1.3 µM | 23.5 ± 1.6 µM | 4.5 to 53.4 µM | 24.9 ± 0.7 µM | – | – | –
COc1cc([C@@H]2c3cc4c(cc3[C@@H](O[C@@H]3O[C@@H]5CO[C@@H](C)O[C@H]5[C@H](O)[C@H]3O)[C@H]3COC(=O)[C@H]23)OCO4)cc(OC)c1O [Ref., etoposide, reference compound] | – | 0.4 µM | 2.9 ± 0.2 µM | 3.3 ± 0.2 µM | – | 2.2 ± 0.1 µM | – | – | –
Methyl (R,Z)-2-(3-benzoyl-1,4-dioxo-1,4-dihydronaphthalen-2-yl)-3-[(1-methoxy-1-oxo-3-phenylpropan-2-yl)amino]-but-2-enoate [Compound 10] | – | 30.7 ± 1.5 µM | – | 23 ± 0.7 µM | – | – | 34.2 ± 2.3 µM | 46.7 ± 2.9 µM | –
Methyl (R,Z)-2-(3-butyryl-1,4-dioxo-1,4-dihydronaphthalen-2-yl)-3-[(1-methoxy-1-oxo-3-phenylpropan-2-yl)amino]-but-2-enoate [Compound 12] | – | 12.8 ± 0.7 µM | – | 14 ± 0.6 µM | – | – | 15.9 ± 0.9 µM | 21.8 ± 1.5 µM | –
Methyl (S,Z)-2-(3-benzoyl-1,4-dioxo-1,4-dihydronaphthalen-2-yl)-3-[(1-methoxy-1-oxo-3-phenylpropan-2-yl)amino]-but-2-enoate [Compound 9] | – | 19.3 ± 1.5 µM | – | 22 ± 1.1 µM | – | – | 39.3 ± 1.6 µM | 33.3 ± 2.2 µM | –
Methyl (S,Z)-3-[(3-(1H-indol-3-yl)-1-methoxy-1-oxopropan-2-yl)amino]-2-(3-benzoyl-1,4-dioxo-1,4-dihydronaphthalen-2-yl)-but-2-enoate [Compound 11] | – | 10.1 ± 0.1 µM | – | 21.4 ± 0.8 µM | – | – | 18.9 ± 0.5 µM | 13 ± 0.8 µM | –
Methyl (S,Z)-3-[(3-(1H-indol-3-yl)-1-methoxy-1-oxopropan-2-yl)amino]-2-(3-hexanoyl-1,4-dioxo-1,4-dihydronaphthalen-2-yl)but-2-enoate [Compound 14] | – | 9.3 ± 0.6 µM | – | 4.5 ± 0.2 µM | – | – | 5.5 ± 0.2 µM | 22.1 ± 1.6 µM | ten times lower
